Data on 34 compounds can be found in patent US10544106B2, “Certain chemical entities, compositions, and methods” (NeuPharma, Inc., priority 2016, dated 2020).

A word on the inhibition: it is the relative decrease from the control value, in per cent. Low readings indicate a response near the control, high ones a response far below the control. One may read the IC50 as the point on the concentration scale where inhibition reaches its midpoint. Read a low IC50 as greater potency in that assay.

This assay concerns the target BTK (Homo sapiens (Human), UniProt Q06187). Nature of the assay: Z'-LYTE kinase inhibition assay against BTK. The assay is classed as biochemical. As to conditions: for inhibition at 0.1 µM: compound at 100 nM, ATP concentration at Km; for IC50: series of concentrations, GraphPad Prism 5. In outline:
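Z′-LYTE FRET readout: 1.04-10.4 ng BTK with 2 μM Tyr 01 peptide, ATP at Km, in 50 mM HEPES pH 7.5, 10 mM MgCl2, 1 mM EGTA, 0.01% BRIJ-35, 1% DMSO. 60 min kinase reaction at room temperature, then 60 min development; IC50 from 10-point, 3-fold titrations.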

Each structure is given as a SMILES string.

Chain of BTK (Q06187 whole entry): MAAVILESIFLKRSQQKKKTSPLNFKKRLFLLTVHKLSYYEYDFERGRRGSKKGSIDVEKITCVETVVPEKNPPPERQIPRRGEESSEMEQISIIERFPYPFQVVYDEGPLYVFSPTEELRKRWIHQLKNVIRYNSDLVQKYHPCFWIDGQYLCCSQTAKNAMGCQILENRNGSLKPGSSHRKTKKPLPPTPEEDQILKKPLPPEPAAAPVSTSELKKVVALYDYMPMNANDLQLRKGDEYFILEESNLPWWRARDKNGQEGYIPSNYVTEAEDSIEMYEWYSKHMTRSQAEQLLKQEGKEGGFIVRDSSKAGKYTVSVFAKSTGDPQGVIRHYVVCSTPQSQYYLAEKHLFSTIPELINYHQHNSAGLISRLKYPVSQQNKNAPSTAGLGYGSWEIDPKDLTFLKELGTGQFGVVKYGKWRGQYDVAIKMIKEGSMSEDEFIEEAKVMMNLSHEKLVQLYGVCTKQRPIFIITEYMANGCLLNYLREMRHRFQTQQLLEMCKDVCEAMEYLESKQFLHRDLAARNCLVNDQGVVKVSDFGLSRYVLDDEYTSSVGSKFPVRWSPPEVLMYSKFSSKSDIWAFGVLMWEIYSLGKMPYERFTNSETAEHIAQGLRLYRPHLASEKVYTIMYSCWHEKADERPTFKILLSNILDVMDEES

In turn, `C=CC(=O)Nc1cccc(-c2cc(-c3ccc(C(=O)Nc4cc(C5CC5)ccn4)cc3F)cc3cncnc23)c1` [C153, 4-(8-(3-acrylamidophenyl)quinazolin-6-yl)-N-(4-cyclopropylpyridin-2-yl)-3-fluorobenzamide] showed an inhibition at 0.1 µM greater than 50% and an IC50 of less than 100 nM. `C=CC(=O)N1CCC(c2cc(-c3ccc(Oc4cccc(C(F)(F)F)c4)nc3)cc3cncnc23)C1` (stereo not shown) [C082, 1-(3-(6-(6-(3-(trifluoromethyl)phenoxy)pyridin-3-yl)quinazolin-8-yl)pyrrolidin-1-yl)prop-2-en-1-one] came in with an inhibition at 0.1 µM of less than 50%. `C=CC(=O)N1CCC(c2cc(-c3ccc(C(=O)Nc4ccccc4)nc3)cc3cncnc23)C1` (stereo not shown) [C060, 5-(8-(1-acryloylpyrrolidin-3-yl)quinazolin-6-yl)-N-phenylpicolinamide] returned an inhibition at 0.1 µM of less than 50%.

In turn, `C=CC(=O)Nc1cccc(-c2cc(-c3ccc(C(=O)Nc4ccccn4)cc3)c(N)c3cnc(N)nc23)c1` [C178, 4-(8-(3-acrylamidophenyl)-2,5-diamino-quinazolin-6-yl)-N-(pyridin-2-yl)benzamide] came in with an inhibition at 0.1 µM of less than 50%. On to `C=CC(=O)Nc1cccc(-c2cc(-c3ccc(C(=O)Nc4cccc(C(F)(F)F)c4)nc3)cc3cncnc23)c1` [C071, 5-(8-(3-acrylamidophenyl)quinazolin-6-yl)-N-(3-(trifluoromethyl)phenyl)picolinamide], for which the inhibition at 0.1 µM is greater than 50%.

`C=CC(=O)Nc1cccc(-c2cc(-c3ccc(Oc4cc(C#N)ccn4)cc3F)cc3cncnc23)c1` [C189, N-(3-(6-(4-((4-cyanopyridin-2-yl)oxy)-2-fluorophenyl)quinazolin-8-yl)phenyl)acrylamide] gave an inhibition at 0.1 µM greater than 50% and a 50% inhibitory concentration (IC50) of less than 100 nM. In the case of `C=CC(=O)N1CCC(c2cc(-c3ccc(Oc4ccccn4)cc3)c(N)c3cncnc23)C1` (stereo not shown) [C181, 1-(3-(5-amino-6-(4-(pyridin-2-yloxy)phenyl)quinazolin-8-yl)pyrrolidin-1-yl)prop-2-en-1-one], the inhibition at 0.1 µM was less than 50%.

As for `C=CC(=O)Nc1cccc(-c2cc(-c3cncc(Cl)c3)cc3cnc(N)nc23)c1` [C103, N-(3-(2-amino-6-(5-chloropyridin-3-yl)quinazolin-8-yl)phenyl)acrylamide], the inhibition at 0.1 µM was greater than 50% and the IC50 is less than 100 nM.

The compound `C=CC(=O)Nc1cccc(-c2cc(-c3ccc(C(=O)Nc4ccccn4)cc3C#N)cc3cncnc23)c1` [C201, 4-(8-(3-acrylamidophenyl)quinazolin-6-yl)-3-cyano-N-(pyridin-2-yl)benzamide] had an inhibition at 0.1 µM greater than 50% and an IC50 of less than 100 nM. As to `C=CC(=O)N1CCC(c2nc(-c3ccc(Oc4ccccn4)c(F)c3)n3c(N)nccc23)C1` (stereo not shown) [C208, 1-(3-(5-amino-3-(3-fluoro-4-(pyridin-2-yloxy)phenyl)imidazo[1,5-c]pyrimidin-1-yl)pyrrolidin-1-yl)prop-2-en-1-one], the inhibition at 0.1 µM was greater than 50% and the half-maximal inhibitory concentration (IC50) was less than 100 nM. In turn, `C=CC(=O)N1CCC(c2cc(-c3ccc(C(=O)Nc4ccccn4)cc3Cl)cc3cncnc23)C1` (stereo not shown) [C067, 4-(8-(1-acryloylpyrrolidin-3-yl)quinazolin-6-yl)-3-chloro-N-(pyridin-2-yl)benzamide] had an inhibition at 0.1 µM greater than 50% and a concentration for half-maximal inhibition (IC50) of less than 100 nM.

In turn, `C=CC(=O)N1CCC(c2cc(-c3ccc(C(=O)Nc4cc(C#N)ccn4)cc3F)n3cnccc23)C1` (stereo not shown) [C151, 4-(5-(1-acryloylpyrrolidin-3-yl)pyrrolo[1,2-c]pyrimidin-7-yl)-N-(4-cyanopyridin-2-yl)-3-fluorobenzamide] yielded an inhibition at 0.1 µM of less than 50%. Still for that read-out and setting: to `C=CC(=O)N1CCC(c2cc(-c3ccc(C(=O)Nc4cc(C5CC5)ccn4)cc3F)n3cnccc23)C1` (stereo not shown) [C149, 4-(5-(1-acryloylpyrrolidin-3-yl)pyrrolo[1,2-c]pyrimidin-7-yl)-N-(4-cyclopropylpyridin-2-yl)-3-fluorobenzamide] belongs less than 50%; to `C=CC(=O)N1CCC(c2nc(-c3ccc(Oc4ncccc4F)cc3)n3c(N)nccc23)C1` (stereo not shown) [C226, 1-(3-(5-amino-3-(4-((3-fluoropyridin-2-yl)oxy)phenyl)imidazo[1,5-c]pyrimidin-1-yl)pyrrolidin-1-yl)prop-2-en-1-one], greater than 50%. Still for that read-out and setting: the value for `C=CC(=O)N1CCCC(c2cc(-c3cccnc3)cc3cnc(N)nc23)C1` (stereo not shown) [C045, 1-(3-(2-amino-6-(pyridin-3-yl)quinazolin-8-yl)piperidin-1-yl)prop-2-en-1-one] was less than 50%; that for `C=CC(=O)Nc1cccc(-c2cc(-c3ccc(C(=O)N4CCOCC4)cc3)cc3cncnc23)c1` [C101, N-(3-(6-(4-(morpholine-4-carbonyl)phenyl)quinazolin-8-yl)phenyl)acrylamide] was greater than 50%. For the compound `C=CC(=O)Nc1cccc(-c2cc(-c3ccc(Oc4cccc(F)c4)nc3)cc3cncnc23)c1` [C086, N-(3-(6-(6-(3-fluorophenoxy)pyridin-3-yl)quinazolin-8-yl)phenyl)acrylamide], the inhibition at 0.1 µM is greater than 50% and the IC50 is less than 100 nM. Take `C=CC(=O)Nc1cccc(-c2cc(-c3ccc(C(=O)Nc4cc(C(F)(F)F)ccn4)cc3Cl)cc3cncnc23)c1` [C116, 4-(8-(3-acrylamidophenyl)quinazolin-6-yl)-3-chloro-N-(4-(trifluoromethyl)pyridin-2-yl)benzamide]: the inhibition at 0.1 µM is greater than 50% and the IC50 is less than 100 nM. Take `C=CC(=O)N1CCC(c2nc(-c3ccc(Oc4ncccc4C#N)cc3)n3c(N)nccc23)C1` (stereo not shown) [C227, 2-(4-(1-(1-acryloylpyrrolidin-3-yl)-5-amino-imidazo[1,5-c]pyrimidin-3-yl)phenoxy)nicotinonitrile]: the inhibition at 0.1 µM was greater than 50%.

Turning to `C=CC(=O)Nc1cccc(-c2cc(-c3ccc(C(=O)Nc4ccccn4)cc3)cc3cnc(N)nc23)c1` [C040, 4-(8-(3-acrylamidophenyl)-2-aminoquinazolin-6-yl)-N-(pyridin-2-yl)benzamide], the inhibition at 0.1 µM was less than 50%. The compound `C=CC(=O)N1CCC(c2cc(-c3ccc(Oc4ncccc4F)cc3F)cc3cncnc23)C1` (stereo not shown) [C108, 1-(3-(6-(2-fluoro-4-((3-fluoropyridin-2-yl)oxy)phenyl)quinazolin-8-yl)pyrrolidin-1-yl)prop-2-en-1-one] yielded an inhibition at 0.1 µM greater than 50%.

As for `C=CC(=O)Nc1cccc(-c2cc(-c3ccc(C(=O)Nc4cc(C(F)(F)F)ccn4)cc3)cc3cncnc23)c1` [C137, 4-(8-(3-acrylamidophenyl)quinazolin-6-yl)-N-(4-(trifluoromethyl)pyridin-2-yl)benzamide], the inhibition at 0.1 µM is greater than 50% and the half-inhibitory concentration (IC50) is less than 100 nM.

In turn, `C=CC(=O)N1CCCC(c2cc(-c3ccccc3)cc3cncnc23)C1` (stereo not shown) [C020, 1-(3-(6-phenylquinazolin-8-yl)piperidin-1-yl)prop-2-en-1-one] had an inhibition at 0.1 µM of less than 50%. `C=CC(=O)N1CCC(c2cc(-c3ccc(Oc4ccccn4)cc3F)n3cnccc23)C1` (stereo not shown) [C159, 1-(3-(7-(2-fluoro-4-(pyridin-2-yloxy)phenyl)pyrrolo[1,2-c]pyrimidin-5-yl)pyrrolidin-1-yl)prop-2-en-1-one] displayed an inhibition at 0.1 µM of less than 50%. On to `C=CC(=O)Nc1cccc(-c2cc(-c3ccc(Oc4cc(C(F)(F)F)ccn4)cc3F)c(N)c3cncnc23)c1` [C187, N-(3-(5-amino-6-(2-fluoro-4-((4-(trifluoromethyl)pyridin-2-yl)oxy)phenyl)quinazolin-8-yl)phenyl)acrylamide], for which the inhibition at 0.1 µM is less than 50% and the IC50 is greater than 100 nM. Regarding `C=CC(=O)N1CCC(c2cc(-c3ccc(C(=O)Nc4ccccn4)cc3F)cc3cncnc23)C1` (stereo not shown) [C094, 4-(8-(1-acryloylpyrrolidin-3-yl)quinazolin-6-yl)-3-fluoro-N-(pyridin-2-yl)benzamide], the inhibition at 0.1 µM is less than 50%.

Turning to `C=CC(=O)Nc1cccc(-n2c(-c3ccccc3)nc3cncnc32)c1` [C014, N-(3-(8-phenyl-9H-purin-9-yl)phenyl)acrylamide], the inhibition at 0.1 µM is less than 50%. In turn, `C=CC(=O)Nc1cccc(-c2cc(-c3ccc(C(=O)Nc4cc(C#N)ccn4)cc3Cl)cc3cncnc23)c1` [C122, 4-(8-(3-acrylamidophenyl)quinazolin-6-yl)-3-chloro-N-(4-cyanopyridin-2-yl)benzamide] came in with an inhibition at 0.1 µM greater than 50% and a half-maximal inhibitory concentration (IC50) of less than 100 nM. In the case of `C=CC(=O)N1CCC(c2cc(-c3ccc(C(=O)Nc4cc(OC)ccn4)cc3F)n3cnccc23)C1` (stereo not shown) [C150, 4-(5-(1-acryloylpyrrolidin-3-yl)pyrrolo[1,2-c]pyrimidin-7-yl)-3-fluoro-N-(4-methoxypyridin-2-yl)benzamide], the inhibition at 0.1 µM is less than 50%. On the same count and under the same terms, the value for `C=CC(=O)N1CCC=C(c2cc(-c3ccc(C(=O)Nc4ccccn4)cc3)cc3cncnc23)C1` [C009, 4-(8-(1-acryloyl-1,2,5,6-tetrahydropyridin-3-yl)quinazolin-6-yl)-N-(pyridin-2-yl)benzamide] was less than 50%; that for `C=CC(=O)N1CCC(c2cc(-c3ccc(C(=O)Nc4ccncc4)cc3)cc3cncnc23)C1` (stereo not shown) [C155, 4-(8-(1-acryloylpyrrolidin-3-yl)quinazolin-6-yl)-N-(pyridin-4-yl)benzamide] was less than 50%. Regarding `CC#CC(=O)N1CCCC(c2nc(-c3ccc(Oc4ccccn4)cc3)n3c(N)nccc23)C1` (stereo not shown) [C244, 1-(3-(5-amino-3-(4-(pyridin-2-yloxy)phenyl)imidazo[1,5-c]pyrimidin-1-yl)piperidin-1-yl)but-2-yn-1-one], the IC50 was less than 100 nM. For the compound `C=CC(=O)Nc1cccc(-c2cc(-c3ccccc3)cc3cnc(N)nc23)c1` [C005, N-(3-(2-amino-6-phenylquinazolin-8-yl)phenyl)acrylamide], the inhibition at 0.1 µM was greater than 50% and the IC50 was less than 100 nM. `C=CC(=O)N1CCC(c2cc(-c3ccccc3)cc3cncnc23)C1` (stereo not shown) [C047, 1-(3-(6-phenylquinazolin-8-yl)pyrrolidin-1-yl)prop-2-en-1-one] yielded an inhibition at 0.1 µM greater than 50%.
